From ChEMBL document CHEMBL1201862, “PubChem BioAssay data set” (2004)
Activity calls are given as the source filed them.

Experiments:
Jurkat = test: blockers of NF-kB activation in T cells – Jurkat, luciferase reporter, luminescence, B- and T-cell, dose response (AID 489004); type: functional, cell-based; conditions: Homo sapiens;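 further: NF-kB luciferase reporter Jurkat cells stimulated with PMA plus ionomycin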
H4 [1] = test: Inhibitors of Prion Protein 5' UTR mRNA Measured in Cell-Based System Using Plate Reader - 2078-01_Inhibitor_Dose_DryPowder_Activity. [Related pubchem assays (depositor defined):AID488894]; type: functional; conditions: Homo sapiens
[2] = biological target: Luciferin 4-monooxygenase (Photinus pyralis, UniProt P08659); test: inhibition of purified Photinus pyralis luciferase – biochemical, dry powder samples, plate reader, dose response (AID 588451)
Luciferin 4-monooxygenase, sequence (P08659 whole entry): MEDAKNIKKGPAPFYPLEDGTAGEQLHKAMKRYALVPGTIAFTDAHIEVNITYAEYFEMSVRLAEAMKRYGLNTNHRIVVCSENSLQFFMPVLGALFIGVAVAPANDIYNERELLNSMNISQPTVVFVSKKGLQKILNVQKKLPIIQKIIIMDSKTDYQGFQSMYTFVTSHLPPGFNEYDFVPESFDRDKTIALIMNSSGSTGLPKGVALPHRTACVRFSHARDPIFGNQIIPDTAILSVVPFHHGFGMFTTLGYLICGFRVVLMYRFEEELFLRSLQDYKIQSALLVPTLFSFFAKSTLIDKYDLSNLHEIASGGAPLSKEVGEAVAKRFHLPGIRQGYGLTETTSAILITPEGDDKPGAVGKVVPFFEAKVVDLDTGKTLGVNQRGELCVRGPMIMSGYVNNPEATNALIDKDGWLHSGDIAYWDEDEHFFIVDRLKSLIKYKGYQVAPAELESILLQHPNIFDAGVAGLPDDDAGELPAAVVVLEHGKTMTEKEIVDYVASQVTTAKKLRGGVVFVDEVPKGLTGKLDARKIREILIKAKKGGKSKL

[3] = blockers of bursicon-stimulated LGR2 cAMP reporter – cell-based, HEK293, CRE-luciferase reporter, cherry pick, set 2, dose response (AID 743343); type: functional;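 further: transfected cells were stimulated with diluted bursicon conditioned medium after compound addition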
[4] = blockade of melanocortin 4 receptor signaling – cell-based, plate reader, cherry pick, counter-screen for LGR2 antagonist project, dose response (AID 743444); type: functional;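 further: transfected HEK 293 cells stimulated with alpha-MSH peptide; potency of inhibitors of the alpha-MSH evoked signal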
H4 [5] = test: inhibitors of control reporter signal in H4 cells – cell-based, plate reader, dry powder samples, counter-screen for prion reporter project, dose response (AID 540255); type: functional; conditions: Homo sapiens
H4 [6] = test: Amyloid Precursor 5' UTR neuroblastoma cell reporter line Measured in Cell-Based System Using Plate Reader - 2078-04_Inhibitor_Dose_DryPowder_Activity. [Related pubchem assays (depositor defined):AID488894]; type: functional; conditions: Homo sapiens
[7] = HEK-293T viability loss, compound-treated – cell-based, uHTS hits, cytotoxicity control for B/T-cell NF-kB inhibitor project, dose response (AID 489019); type: functional;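 further: IC50 reflects cytotoxicity as loss of cell viability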
Candida albicans [8] = test: Candida growth inhibition combined with fluconazole – CaCi-2 strain, Alamar Blue, dry powder, set 3, dose response (AID 488907); type: functional, organism-based
Candida albicans [9] = test: resistant Candida growth with fluconazole co-treatment – CaCi-8 strain, Alamar Blue, dry powder, set 3, dose response (AID 488905); type: functional, organism-based
Phospholipase D2 = Phospholipase D2 (Homo sapiens, UniProt O14939); test: cellular phospholipase D2 inhibition IC50 – cell-based, dose response (AID 602147); type: functional;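 further: cellular assay in HEK293 cells overexpressing GFP-tagged PLD2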
Phospholipase D2, sequence (O14939 whole entry): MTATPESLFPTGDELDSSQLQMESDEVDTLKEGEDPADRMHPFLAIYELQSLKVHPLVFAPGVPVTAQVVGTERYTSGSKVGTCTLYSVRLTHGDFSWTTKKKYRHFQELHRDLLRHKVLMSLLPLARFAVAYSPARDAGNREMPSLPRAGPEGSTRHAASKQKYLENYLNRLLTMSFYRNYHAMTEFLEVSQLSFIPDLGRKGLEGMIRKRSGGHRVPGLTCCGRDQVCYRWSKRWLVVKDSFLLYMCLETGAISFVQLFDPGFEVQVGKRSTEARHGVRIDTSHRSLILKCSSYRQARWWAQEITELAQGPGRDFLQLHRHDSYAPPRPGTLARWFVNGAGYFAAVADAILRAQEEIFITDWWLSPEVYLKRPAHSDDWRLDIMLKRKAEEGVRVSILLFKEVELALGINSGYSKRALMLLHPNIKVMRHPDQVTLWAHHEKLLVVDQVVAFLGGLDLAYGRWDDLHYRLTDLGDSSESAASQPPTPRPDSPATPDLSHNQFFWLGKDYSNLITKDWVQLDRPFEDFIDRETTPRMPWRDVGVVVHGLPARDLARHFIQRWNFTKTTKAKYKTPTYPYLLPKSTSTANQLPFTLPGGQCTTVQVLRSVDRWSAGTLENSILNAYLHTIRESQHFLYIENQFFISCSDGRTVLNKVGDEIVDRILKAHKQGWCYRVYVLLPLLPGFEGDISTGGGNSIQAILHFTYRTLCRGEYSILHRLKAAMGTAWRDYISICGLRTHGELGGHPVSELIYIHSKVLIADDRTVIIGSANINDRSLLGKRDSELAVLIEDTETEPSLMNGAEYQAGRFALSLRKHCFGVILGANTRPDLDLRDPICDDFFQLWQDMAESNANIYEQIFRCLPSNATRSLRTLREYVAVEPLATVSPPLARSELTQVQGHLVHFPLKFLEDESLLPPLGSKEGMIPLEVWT

Phospholipase D1 = Phospholipase D1 (Homo sapiens, UniProt Q13393); test: cellular phospholipase D1 inhibition IC50 – cell-based, dose response (AID 602151); type: functional;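 further: cellular PLD1 assay in Calu-1 cells stimulated with PMA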
Phospholipase D1, sequence (Q13393 whole entry): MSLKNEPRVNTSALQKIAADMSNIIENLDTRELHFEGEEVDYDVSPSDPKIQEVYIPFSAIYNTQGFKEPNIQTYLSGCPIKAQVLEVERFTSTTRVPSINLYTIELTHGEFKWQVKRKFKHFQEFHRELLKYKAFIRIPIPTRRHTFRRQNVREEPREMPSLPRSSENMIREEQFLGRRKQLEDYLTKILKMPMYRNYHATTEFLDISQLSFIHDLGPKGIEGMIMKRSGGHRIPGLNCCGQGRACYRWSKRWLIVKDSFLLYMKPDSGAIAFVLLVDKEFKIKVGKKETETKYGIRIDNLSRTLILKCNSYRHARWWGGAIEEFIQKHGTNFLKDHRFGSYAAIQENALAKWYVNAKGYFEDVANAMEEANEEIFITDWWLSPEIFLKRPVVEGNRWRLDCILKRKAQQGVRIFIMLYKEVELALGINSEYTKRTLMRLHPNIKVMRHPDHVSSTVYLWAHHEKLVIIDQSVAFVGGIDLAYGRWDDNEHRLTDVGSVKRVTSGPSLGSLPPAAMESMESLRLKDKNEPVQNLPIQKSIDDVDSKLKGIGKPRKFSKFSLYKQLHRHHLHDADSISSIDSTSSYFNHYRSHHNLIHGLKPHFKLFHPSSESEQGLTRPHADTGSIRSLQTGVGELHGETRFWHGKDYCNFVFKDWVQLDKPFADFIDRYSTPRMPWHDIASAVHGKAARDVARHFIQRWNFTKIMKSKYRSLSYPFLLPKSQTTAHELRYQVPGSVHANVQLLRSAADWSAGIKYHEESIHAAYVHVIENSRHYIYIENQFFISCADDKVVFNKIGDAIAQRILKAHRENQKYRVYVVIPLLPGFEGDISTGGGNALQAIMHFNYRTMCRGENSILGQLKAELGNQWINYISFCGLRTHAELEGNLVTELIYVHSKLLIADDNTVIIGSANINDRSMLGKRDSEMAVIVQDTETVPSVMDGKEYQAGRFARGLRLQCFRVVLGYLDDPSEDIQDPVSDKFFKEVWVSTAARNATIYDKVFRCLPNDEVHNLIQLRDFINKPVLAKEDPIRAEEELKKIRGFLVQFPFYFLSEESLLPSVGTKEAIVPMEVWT

Cc1cc(C(=O)COC(=O)c2ccccc2O)c(C)n1CC1CCCO1 (configuration not stated)
inactive: IC50 [7] > 80000 nM
active: IC50 (Jurkat) 250 nM | AC50 (H4 [1]) 17 nM | AC50 [2] 1050 nM | AC50 [3] 178 nM | AC50 [4] 178 nM | AC50 (H4 [5]) 273 nM | AC50 (H4 [6]) 5.98 nM

CCCCC(=O)N1CCN(c2ccccn2)CC1
active: AC50 (Candida albicans [8]) 730 nM | AC50 (Candida albicans [9]) 283 nM

O=C(NCCN1CCN(c2ccncc2)CC1)c1cc2cc(F)ccc2[nH]1
active: IC50 (Phospholipase D2) 15000 nM | IC50 (Phospholipase D1) 3600 nM
